Source: publication PMC12516379, “Rotamer-Controlled Self-Immolative Linkers Enable Tunable Release of Neurosteroid Oxime Prodrugs” (ACS Medicinal Chemistry Letters, 2025)

Assays:
[1] = Stability in acetate buffer pH 5.0 at room temperature via HPLC (UV); format: physicochemical
Procedure: (§1) Stability studies were conducted in PBS and acetate buffer utilizing high performance liquid chromatography for potential drug storage considerations. […]
(§2) All experiments were performed in duplicate and results are presented as the average of two experimental replicates.
(§3) 1.1 Aqueous Stability in PBS and Acetate Buffer via HPLC
(§4) Material and Instrumentation
(§5) HPLC grade acetonitrile (MeCN) […] HPLC grade water (H 2O), and formic acid (FA) were purchased from Fisher Scientific.
(§6) Puradisc 4 mm PTFE (0.45 μm) syringe filters from Cytiva. Gibco ® Dulbecco’s phosphate-buffered saline (DPBS 1X, no calcium, no magnesium, pH = 7.03) and acetate buffer (pH = 5.0, 10 mM) were purchased directly from Thermo Fisher Scientific and Cytiva, respectively.
(§7) Aqueous stability experiments were performed on an Agilent 1100 HPLC equipped with an Agilent G1315B diode array detector, an Agilent G1316A heated column compartment, and a Zorbax Eclipse XDB-C18 (4.6 x 150 mm, 5 μm) column.
(§8) Procedure for Aqueous Stability Experiments
(§9) Each sample was first weighed out in two separate 2.0 mL vials using an analytical balance.
(§10) Unless otherwise specified, the test compounds were then dissolved in the aqueous media (PBS or acetate buffer) at a standard concentration of 1 mg/mL. All mixtures were subsequently sonicated for approximately 30 sec. […]
(§11) min), precipitates observed in sample solutions were filtered with a PTFE syringe filter prior to analysis. Immediately after sample preparation, injection by the HPLC autosampler was performed, which was recorded as the initial time point (t = 0 min). Solutions were then kept in the autosampler at RT and reinjected at designated intervals without additional filtration or sample modification. Remaining prodrug was defined by the area under the curve (AUC) at 254 nm. Aqueous stability was ascertained by calculating the percentage of the parent compound remaining after each time point. Linear regression of the time (x-axis) vs. ln(%remaining) (y-axis) plot afforded the rate constant k (slope = -k). Pseudo first-order half-lives were then calculated by the following equation: t1/2 = 0.693/k.

[2] = Stability in PBS at room temperature via HPLC (UV); format: physicochemical; conditions: phosphate-buffered saline (DPBS)
Procedure: as §1, §2, §3, §4, §5, §6, §7, §8, §9, §10, §11

[3] = Aqueous solubility by visual inspection in acetate buffer (pH 5); conditions: for solubility: sodium acetate buffer, pH 5, aqueous buffer, thermodynamic from solid
Procedure: For the solubility assessment, acetate buffer (pH 5) was selected as the media of choice to ensure prodrug stability during analysis.
High aqueous solubility was determined by visual inspection of 5 mg solid material in 0.5 mL
sodium acetate buffer solution. This media was selected to ensure stability of prodrugs during
dissolution in 50 mg/mL aqueous media.

[4] = PBS stability assay at 37 °C via LC-MS/MS; format: physicochemical; conditions: 37 °C; for half-life at 3 µM: phosphate-buffered saline (DPBS), pH 7.03, PBS
[5] = Plasma stability assay at 37 °C via LC-MS/MS, human plasma; format: in vitro ADME; conditions: for half-life at 3 µM: human, plasma;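 as to all read-outs here: prodrugs at 3 µM incubated in human plasma at 37 °C, intact prodrug quantified by LC-MS/MS over time, values are means of duplicate runs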
Procedure: To address this, prodrug stability was further evaluated in human plasma at 37 °C using liquid chromatography–tandem mass spectrometry (LC-MS/MS). For direct comparison, a parallel screen was conducted in PBS under identical conditions (Table ). To prevent premature degradation prior to LC-MS/MS analysis, acetonitrile containing formic acid was used as a quenching solution to acidify and stabilize the prodrugs in vials. […] This limitation in detection, along with the need for a more uniform and broadly applicable assessment across all compounds, prompted us to monitor the formation of the parent oxime as an alternative readout.
Stability experiments in human plasma and PBS were performed via liquid chromatography-tandem mass spectrometry (LC-MS/MS) to determine and compare rate of cleavage of progesterone prodrugs as well as selected allopregnanolone prodrugs (3 µM) when incubated at 37 °C. All experiments were performed in duplicate and results are presented as the average of two experimental replicates.

[6] = LC-MS/MS, read-out: Half-life (t½) PBS 37°C (converted)
[7] = read-out: PBS, 37 °C t½ (Table S23) (converted)
[8] = unit not given (h in Table S23), read-out: t1/2 of allopregnanolone prodrugs in PBS at 37 °C (Table S22) (converted)
[9] = LC-MS/MS, read-out: Half-life (t½) Plasma 37°C (converted)
[10] = read-out: Plasma, 37 °C t½ (Table S23) (converted)
[11] = unit not given (h in Table S23), read-out: t1/2 of allopregnanolone prodrugs in human plasma at 37 °C (Table S21) (converted)

For `CNCCN(CCNC)C(=O)O/N=C(\C)[C@H]1CC[C@H]2[C@@H]3CCC4=CC(=O)CC[C@]4(C)[C@H]3CC[C@]12C.Cl.Cl` [20x], the half-life at 1 mg/mL ([1]; pH 5, acetate buffer pH 5.0, RT, 1 mg/mL, HPLC 254 nm, read-out: t1/2 in acetate buffer at RT (Tables S5-S8) (converted)) was 72.2 h, the half-life at 1 mg/mL ([1]; pH 5, acetate buffer pH 5.0, rt, read-out: t½: pH 5.0, rt (Table S23) (converted)) was > 168 h and the half-life at 1 mg/mL ([2]; pH 7.03, DPBS pH 7.03, RT, 1 mg/mL, HPLC 254 nm, read-out: t1/2 in PBS buffer at RT (Tables S1-S4) (converted)) was 90.6 ± 3 min. The half-life at 1 mg/mL ([2]; pH 7.03, PBS, rt, read-out: t½: PBS, rt (Table S23) (converted)) was 90.6 min and the “Stability in aqueous media during solubility assessment, in words” value ([3]; aqueous media (acetate buffer)) was “poor stability”.

For `CNCCN(C)C(=O)O/N=C(\C)[C@H]1CC[C@H]2[C@@H]3CCC4C[C@H](O)CC[C@]4(C)[C@H]3CC[C@]12C.O=C(O)C(F)(F)F` (stereo partly drawn) [21a], the “PBS, 37 °C %rem. at 2h (Table S23)” value [4] was 88%, the half-life at 3 µM [4, 6] was 571 min and the half-life at 3 µM [4, 7] was 731 min. The half-life at 3 µM [4, 8] was 731 min, the “Plasma, 37 °C %rem. at 2h (Table S23)” value [5] was 13% and the half-life at 3 µM [5, 9] was 76.2 min. The half-life at 3 µM [5, 10] was 35.4 min, the half-life at 3 µM [5, 11] was 35.4 min and the solubility [3] was > 5000 µg/mL.

With `CNCCN(C(=O)O/N=C(\C)[C@H]1CC[C@H]2[C@@H]3CCC4C[C@H](O)CC[C@]4(C)[C@H]3CC[C@]12C)C1CC1.O=C(O)C(F)(F)F` (stereo partly drawn) [21b] the “PBS, 37 °C %rem. at 2h (Table S23)” value [4] was 73%, the half-life at 3 µM [4, 6] was 245 min and the half-life at 3 µM [4, 7] was 245 min. The half-life at 3 µM [4, 8] was 245 min, the “Plasma, 37 °C %rem. at 2h (Table S23)” value [5] was 16% and the half-life at 3 µM [5, 9] was 43.8 min. For the same compound, the half-life at 3 µM [5, 10] was 43.8 min, the half-life at 3 µM [5, 11] was 43.8 min and the solubility [3] was > 5000 µg/mL.

In the case of `CNCCN(C(=O)O/N=C(\C)[C@H]1CC[C@H]2[C@@H]3CCC4C[C@H](O)CC[C@]4(C)[C@H]3CC[C@]12C)C(C)C.O=C(O)C(F)(F)F` (stereo partly drawn) [21c], the “PBS, 37 °C %rem. at 2h (Table S23)” value [4] is reported as 68%, the half-life at 3 µM [4, 6] is reported as 227 min and the half-life at 3 µM [4, 7] is reported as 227 min. The half-life at 3 µM [4, 8] was 227 min, the “Plasma, 37 °C %rem. at 2h (Table S23)” value [5] was 16% and the half-life at 3 µM [5, 9] was 30.6 min. The half-life at 3 µM [5, 10] was 45.6 min, the half-life at 3 µM [5, 11] was 30.6 min and the solubility [3] was > 5000 µg/mL.

With `CNCCN(C(=O)O/N=C(\C)[C@H]1CC[C@H]2[C@@H]3CCC4C[C@H](O)CC[C@]4(C)[C@H]3CC[C@]12C)C1CCC1.O=C(O)C(F)(F)F` (stereo partly drawn) [21d] the “PBS, 37 °C %rem. at 2h (Table S23)” value [4] was 38%, the half-life at 3 µM [4, 6] was 101 min and the half-life at 3 µM [4, 7] was 101 min. For the same compound, the half-life at 3 µM [4, 8] was 101 min, the “Plasma, 37 °C %rem. at 2h (Table S23)” value [5] was 16% and the half-life at 3 µM [5, 9] was 45.6 min. The half-life at 3 µM [5, 10] was 45.6 min, the half-life at 3 µM [5, 11] was 45.6 min and the solubility [3] was > 5000 µg/mL.

With `CNCCN(CCn1ccnc1)C(=O)O/N=C(\C)[C@H]1CC[C@H]2[C@@H]3CCC4C[C@H](O)CC[C@]4(C)[C@H]3CC[C@]12C` (stereo partly drawn) [21k] the “PBS, 37 °C %rem. at 2h (Table S23)” value [4] was 62%, the half-life at 3 µM [4, 7] was 247 min and the half-life at 3 µM [4, 8] was 247 min. For the same compound, the “Plasma, 37 °C %rem. at 2h (Table S23)” value [5] was 14%, the half-life at 3 µM [5, 10] was 48.6 min and the half-life at 3 µM [5, 11] was 48.6 min. For the same compound, the solubility [3] was > 5000 µg/mL.

For `C/C(=N\OC(=O)N(C)C[C@@H]1CCCN1)[C@H]1CC[C@H]2[C@@H]3CCC4C[C@H](O)CC[C@]4(C)[C@H]3CC[C@]12C` (stereo partly drawn) [21l], the “PBS, 37 °C %rem. at 2h (Table S23)” value [4] was 16%, the half-life at 3 µM [4, 6] was 56.4 min and the half-life at 3 µM [4, 7] was 56.4 min. The half-life at 3 µM [4, 8] was 56.4 min, the “Plasma, 37 °C %rem. at 2h (Table S23)” value [5] was 2% and the half-life at 3 µM [5, 9] was 21.6 min. For the same compound, the half-life at 3 µM [5, 10] was 21.6 min, the half-life at 3 µM [5, 11] was 21.6 min and the solubility [3] was > 5000 µg/mL.
